Assay results published in US10538515B2, “Isatin-derived compounds, use of the compounds for the treatment of AIDS and method of treatment using these compounds” (FUNDAÇÄO OSWALDO CRUZ, priority 2016, dated 2020).
Read-outs that look alike come from different tables or passages of the source.

Legend:
[1] = target: T1, recombinant HIV-1 reverse transcriptase (RTHXB2) (Human immunodeficiency virus type 1 group M subtype B, UniProt P04585); assay: Reverse transcriptase inhibition activity (RDDP, [3H]dTTP incorporation); type: biochemical; details: for IS: CC50 / CI50
T1 construct: The enzyme is derived from a polyprotein encoded by the virus, processed by the viral protease
Procedure: Reverse Transcriptase Inhibition Activity
The RDDP activity was determined in 50 mM Tris HCl (pH 7.8), 6 mM MgCl2, 1 mM dithiothreitol, 50 mM KCl, 5 μM dTTP, […] poly (rA) oligo (dT) template primer (Pharmacia, Piscataway, N.J., USA) and 3 U of enzyme (one unit is the enzyme concentration incorporating dTTP […] per minute per mg of enzyme at 37° C. under standard conditions). The reaction isotope dilutions were prepared at 2 μCi of [3H] dTTP (49 Ci/mmol)/2,7μ dTTP. The reaction was initiated at 37° C., incubated for 30 minutes and halted with 0.5M EDTA. The precipitate was collected on Whatman 81 filter paper and washed with 0.1 M sodium phosphate. The incorporated nucleotides were measured by liquid scintillation. The 50% inhibitory concentration (Ciso) was determined by linear regression analysis of the dose-response curve obtained from experimental data. The polymerization reaction was conducted in the presence and absence of test substances, as well as the presence and absence of standards.
All tests were conducted on three separate occasions. At least three independent experiments were performed and triplicates were run for each concentration.

[2] = test system: Suptl cells (T-lymphocyte cell line); assay: Cytotoxicity assay (MTT); type: cell-based
Procedure: (§1) The T-lymphocyte cell line (Suptl) was cultured in an RPMI 1640 medium (GIBICO). The cultures were supplemented with 10% Fetal Bovine Serum (SFB; HyClone, Logan, Utah, USA), 100 U/mL of penicillin and […] of streptomycin, and incubated at 37° C., in an atmosphere of 5% CO2. Virus stocks were prepared using the methodology described by Souza and Denizot (SOUZA, T. M. L; RODRIGUES, D. Q.; […], V. F.; MARQUES, I. P.; DE SOUZA, M. C. B. V.; […], I. C. P. P.; BOU-HABIB, D. C; FONTES, C. F. L. Characterization of HIV-1 enzyme reverse transcriptase inhibition by the compound 6-chloro-1.4-dihydro-4-oxo-1-(β-D-ribofuranosyl) quinoline-3-carboxylic acid through kinetic and in silico studies. Current HIV Research, v. 7, No 3, page 327-335, 2009. DENIZOT, F.; LANG, R. Rapid colorimetric assay for cell growth and survival. Modifications to the tetrazolium dye procedure giving improved sensitivity and reliability. The Journal of Immunological Methods, v. 89, No 2, page 271-277, 1986).
(§2) . They were then run through an MTT assay (3-(4,5-dimethylazol-2-yl)-2.5-diphenyl tetrazolium bromide) in order to analyze cell induction infeasibility. MTT is a colorimetric method that measures mitochondrial dehydrogenase activity based on the ability of live cells to reduce 3-(4,5-methylazol-2-yl)-2.5-diphenyl tetrazolium bromide salt in the product. A […] solution of 3-(4,5-dimethylthiazol-2-yl)-2.5-diphenyl tetrazolium bromide (1 mg/ml) (MTT, Sigma) was thus added to the cells, kept in Dulbecco's Modified Eagle's medium (DMEM) without serum. The MTT was removed after three hours and, after adding […] of isopropanol acid (0.04N HCl in isopropanol), the optical density (OD) was determined using a wavelength range of 570 to 690 nm, according to KUO et al (KUO, Y. C; CHEN, C. C; TSA, W. J.; HO, Y. H. Regulation of type 1 herpes simplex virus replication in vero cells by Psychotriaserpens: relationship to gene expression, DNA replication, and protein synthesis. Antiviral Research, v. 51, No 2, pages 95 to 109, 2001). The dye coloring has different optical densities, depending on mitochondrial metabolism after treating cells with different concentrations of the new derivatives or the absence thereof. The 50% cytotoxic concentration (CC50) was calculated through linear regression analysis from the dose-response curve obtained from experimental data.

Cytotoxicity assay (MTT) = type: cell-based; details: human
Procedure: as §1, §2

[3] = 50% inhibitory concentration, mean of three independent experiments, read-out: CI50 (the source's name)
[4] = 50% cytotoxic concentration, 72 hours, MTT, read-out: CC50

SMILES | IC50 [1, 3] [µM] | IS [1] | CC50 [2, 4] [µM] | other results
C[C@H](Cn1cnc2c(N)ncnc21)OCP(=O)(O)O [Tenofovir, reference compound] | 1.2 | 567 |  | CC50 [2]: 680 µM
Cc1cn(C2CC(n3cc(CN4C(=O)C(F)(F)c5ccccc54)nn3)C(CO)O2)c(=O)[nH]c1=O (stereo not shown) [IIIa, 1-(4-(4-((3,3-difluor-2-oxoindolin-1-yl)methyl)-1H-1,2,3-triazole-1-yl)-5-(hydroxymethyl)tetrahydrofuran-2-yl)-5-methylpyrimidine-2.4(1H,3H)-dione] | 0.6 | 1392 | 835 | RT enzyme inhibition activity compared with benchmarks (in words) [1]: more active than the nevirapine and tenofovir benchmarks
CCOP(=O)(Cn1cc(CN2C(=O)C(F)(F)c3cc(Cl)ccc32)nn1)OCC [IIIf, diethyl ((4-((5-chloro-3.3-difluor-2-oxoindolin-1-yl)methyl)-1H-1,2,3-triazole-1-yl)methyl) phosphonate] | 0.9 | 2106 | 1900 | RT enzyme inhibition activity compared with benchmarks (in words) [1]: more active than the nevirapine and tenofovir benchmarks
CCOP(=O)(Cn1cc(CN2C(=O)C(O)(C#CC3CC3)c3cc(Cl)ccc32)nn1)OCC (stereo not shown) [IIf, diethyl ((4-((5-chloro-3-(cyclopropylethanol)-3-hydroxy-2-oxoindolin-1-yl)methyl)-1H-1,2,3-triazole-1-yl)methyl) phosphonate] | 3.2 |  | > 100 | 
Cc1ccc2c(c1)C(F)(F)C(=O)N2Cc1cn(C2CC(n3cc(C)c(=O)[nH]c3=O)OC2CO)nn1 (stereo not shown) [IIIb, 1-(4-(4-((3,3-difluor-5-methyl-2-oxoindolin-1-yl)methyl)-1H-1,2,3-triazole-1-yl)-5-(hydroxymethyl)tetrahydrofuran-2-yl)-5-methylpyrimidine-2.4(1H,3H)-dione] | 3.2 |  | > 100 | 
Cc1cn([C@H]2C[C@H](N=[N+]=[N-])[C@@H](CO)O2)c(=O)[nH]c1=O [Zidovudine, reference compound] |  | 12,600 |  | IC50 [1]: 0.01 µM; CC50 at 72 h (Cytotoxicity assay (MTT)): 126 µM
CCOP(=O)(Cn1cc(CN2C(=O)C(O)(C#CC3CC3)c3cc(C)ccc32)nn1)OCC (stereo not shown) [IIe, diethyl ((4-((3-(cyclopropylethanol)-3-hydroxy-5-methyl-2-oxoindolin-1-yl)methyl-1,2,3-triazole-1-yl)methyl) phosphonate] |  |  |  | IC50 [1]: 1.8 µM; CC50 at 72 h (Cytotoxicity assay (MTT); [4]): > 100 µM
CCOP(=O)(Cn1cc(CN2C(=O)C(F)(F)c3ccccc32)nn1)OCC [IIId, diethyl ((4-((3,3-difluor-2-oxoindolin-1-yl)methyl)-1H-1,2,3-triazole-1-yl)methyl) phosphonate] | 1.2 | 1247 | 1500 | 
Cc1ccc2c(c1)C(=O)C(=O)N2Cc1cn(C2CC(n3cc(C)c(=O)[nH]c3=O)OC2CO)nn1 (stereo not shown) [Ib] |  |  |  | IC50 [1]: 1.9 µM; CC50 at 72 h (Cytotoxicity assay (MTT); Suptl cells (T-lymphocyte cell line), 50% cytotoxic concentration, 72 hours, MTT, read-out: CC50): > 100 µM
CCOP(=O)(Cn1cc(CN2C(=O)C(F)(F)c3cc(C)ccc32)nn1)OCC [IIIe, diethyl ((4-((3,3-difluor-5-methyl-2-oxoindolin-1-yl)methyl)-1H-1,2,3-triazole-1-yl)methyl) phosphonate] | 2.2 |  | > 100 | 
Cc1cn(C2CC(n3cc(CN4C(=O)C(F)(F)c5cc(Cl)ccc54)nn3)C(CO)O2)c(=O)[nH]c1=O (stereo not shown) [IIIc, 1-(4-(4-((5-chloro-3.3-difluor-2-oxoindolin-1-yl)methyl)-1H-1,2,3-triazole-1-yl)-5-(hydroxymethyl)tetrahydrofuran-2-yl)-5-methylpyrimidine-2.4(1H,3H)-dione] | 0.8 | 1318 | 1050 | RT enzyme inhibition activity compared with benchmarks (in words) [1]: more active than the nevirapine and tenofovir benchmarks
